From patent US10149887B2, “Peptides and peptidomimetics in combination with t cell activating and/or checkpoint inhibiting agents for cancer treatment” (CanBas Co., Ltd., priority 2015, dated 2018)
pIC50: −log10 of the molar value. Read-outs that look alike come from different tables or passages of the source. Square brackets hold non-standard residues; d marks the D form. Peptide text beside a SMILES is read from it. dPhe(F5) = N[C@H](Cc1c(F)c(F)c(F)c(F)c1F)C(=O)O; dCha = N[C@H](CC1CCCCC1)C(=O)O

What was measured:
[1] = system: Jurkat cells; assay: G2 checkpoint abrogation, flow cytometry of bleomycin treated Jurkat cells; format: cell-based, human; settings: dose with 40 μg/ml bleomycine giving detectable G2 checkpoint abrogation, 24 hours
Procedure: Flow cytometry analysis of G2 checkpoint abrogation was performed using human leukemia derived Jurkat cell line. In brief, cultured cells were treated with various doses of peptide/peptidomimetic and 40 μg/ml bleomycine for 24 hr. The DNA of the cells was stained with propidium iodide and analyzed by flow cytometry.
The G2 checkpoint abrogating activity of various arginine rich sequences at different doses on cells treated with bleomycine was studied. Briefly, peptides were added to culture medium of Jurkat cells with bleomycin (40 μg/ml) at 0.2 μg/ml, 0.39 μg/ml, 0.78 μg/ml, 1.56 μg/ml, 3.125 μg/ml, 6.25 μg/ml, 12.5 μg/ml, 25 μg/ml and 50 μg/ml. Cells were subsequently harvested after 24 hours, stained with Krishan's solution, and analyzed with flow cytometry as previously described.

[2] = system: Jurkat cells; assay: Side effect of peptide used alone: Jurkat cell cycle disturbance (flow cytometry); format: cell-based; settings: dose that produced Jurkat cell cycle disturbance, peptide alone
Procedure: Cell-cycle analysis The cell cycle status of the cells treated with bleomycin or adriamcin were analyzed by flow cytometry as described by Kawabe (1997) Nature 385:454-458. In brief, two million cells were re-suspended and incubated in 200 μl Krishan's solution (0.1% Sodium citrate, 50 μg/ml PI, 20 μg/ml RNase A and 0.5% NP-40) for 1 hr at 4° C. and analyzed by a flow cytometry, FACScan™ (Beckton Dickinson, Mountain View, Calif.) with the program CELLQuest™ (Beckton Dickinson).
(§1) The “Appearance of side effect when used alone” indicates the peptide/peptidomimetic dose that produced Jurkat cell cycle disturbance, i.e., the appearance of significant amounts of SubG1 cells (dead cells) or cells in which the DNA content of each varies more than usual. […] The “G2 abrogating dose” indicates the peptide/peptidomimetic dose with 40 μg/ml bleomycine that produced detectable G2 checkpoint abrogation activity following treatment for 24 hours. The “Appearance of side effect when used with colchicine” indicates the peptide/peptidomimetic dose with 5 μg/ml colchicine that produced Jurkat cell cycle disturbance following treatment for 24 hours.

[3] = system: Jurkat cells; assay: M phase checkpoint abrogation / non specific toxicity, colchicine treated Jurkat cells; format: cell-based; settings: dose with 5 μg/ml colchicine that produced Jurkat cell cycle disturbance, 24 hours
Procedure: Flow cytometry analysis of M phase checkpoint abrogation by the compounds was performed using human T cell leukemia Jurkat cell line treated with colchicine (5 μg/ml or 0.5 μg/ml) and various doses of peptide/peptidomimetics for 24 hr (FIG. 12). The DNA of the cells was stained and analyzed by flow cytometry as described above.
as §1
A comparison between G2 checkpoint abrogating activity and non specific toxicity (M checkpoint abrogation) by CB501 was performed. In brief, Jurkat cells were treated with 40 μg/ml bleomycin or 0.5 μg/ml colchicine for G2 checkpoint abrogating activity and non specific toxicity, respectively. The DNA amount in each of the treated cells was analyzed by flow cytometry, as previously described.

[4] = biological target: PKA; assay: In vitro kinase inhibition, PepTag Non-Radioactive Protein Kinase Assay; format: biochemical
[5] = biological target: CHK2 (Homo sapiens, UniProt O96017); assay: as above; format: biochemical; settings: purified CHK2 kinase
CHK2, sequence (O96017 whole entry): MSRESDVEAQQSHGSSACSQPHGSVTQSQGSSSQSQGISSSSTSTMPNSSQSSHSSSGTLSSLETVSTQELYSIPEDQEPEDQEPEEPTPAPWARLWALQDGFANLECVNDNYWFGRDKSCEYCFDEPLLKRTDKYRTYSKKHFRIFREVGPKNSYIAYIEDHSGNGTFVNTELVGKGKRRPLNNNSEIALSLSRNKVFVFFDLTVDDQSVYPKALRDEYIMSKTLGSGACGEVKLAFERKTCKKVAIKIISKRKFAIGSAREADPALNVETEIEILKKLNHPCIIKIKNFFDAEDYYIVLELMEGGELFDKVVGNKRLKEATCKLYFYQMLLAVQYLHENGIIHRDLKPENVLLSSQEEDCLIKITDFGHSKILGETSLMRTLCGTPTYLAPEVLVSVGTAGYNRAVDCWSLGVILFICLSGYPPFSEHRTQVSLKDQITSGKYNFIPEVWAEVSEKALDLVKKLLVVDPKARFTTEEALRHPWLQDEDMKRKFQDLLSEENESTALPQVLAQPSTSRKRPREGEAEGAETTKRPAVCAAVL
Procedure: Since two kinases, Chk1 and Chk2, are important for G2 checkpoint mechanism, kinase inhibition analysis of both enzymes was performed. In vitro kinase inhibition analysis was performed using “PepTag® Non-Radioactive Protein Kinase Assays”, Promega, according to company's protocol, except purified CHK2 kinase was used instead of PKC.

[6] = system: MIAPaCa2; settings: three hours exposure
Procedure: The medium was changed and incubated an additional 24, 48 or 72 hour. Following incubation, 20 μl of alamarBlue 90% reagent was added to each well for another 6 hours for detection of cell viability by fluorescent intensity. Fluorescent intensity was measured using a Spectrafluor Plus plate reader with exitation 530 nm and emission 590 nm. The IC50 was calculated (Table 6).

[7] = system: CT26WT; assay: CT26WT s.c. syngeneic tumor model in Balb/c mice (Example 9); format: in vivo, mouse; settings: CDDP 5 mg/kg, CBP501 7.5 mg/kg, anti-mPD1 200 ug, 3 dosing cycles
Procedure: Relative sizes of tumors were plotted versus the number of days after initiation of the treatment.
All animal studies were conducted according to the protocols approved by the institutional animal care committee of CanBas Co. Ltd. Six-week-old female Balb/c mice (Charles River Laboratories Japan Inc.) were inoculated subcutaneously in the flank with a suspension of CT26WT (5×10^5 cells). […] Tumor volumes, measured thrice weekly with a pair of calipers, were calculated with the following formula: volume (mm^3)=[width (mm)]^2×length (mm)/2. Growth curves after treatment were generated by plotting the mean+/−SE of tumor sizes.
Treatments were initiated when tumor size were reached (˜100 mm^3).

| Compound | G2 abrogating dose [1] [µM] | Appearance of side effect when used alone [2] [µM] | Appearance of side effect when used with Colchicine [3] [µM] | pIC50 [4] | pIC50 [5] | pIC50 ([6]; read-out: IC50 24 hr, additional 24 hour) | pIC50 ([6]; read-out: IC50 48 hr, additional 48 hour) | pIC50 ([6]; read-out: IC50 72 hr, additional 72 hour) | Reduction of tumor growth as compared to vehicle-treated mice [7] [%] |
| --- | --- | --- | --- | --- | --- | --- | --- | --- | --- |
| N=C(N)NCCC[C@@H](NC(=O)[C@@H](CCCCN)NC(=O)[C@@H](CCCCN)NC(=O)[C@@H](CCCNC(=N)N)NC(=O)[C@@H](CCCNC(=N)N)NC(=O)[C@@H](CCC(N)=O)NC(=O)[C@@H](CCCNC(=N)N)NC(=O)[C@@H](CCCNC(=N)N)NC(=O)[C@@H](CCCNC(=N)N)NC(=O)[C@@H](CC1CCCCC1)NC(=O)[C@@H](Cc1c(F)c(F)c(F)c(F)c1F)NC(=O)[C@@H](CCCNC(=N)N)NC(=O)[C@@H](CO)NC(=O)CNC(=O)[C@@H](CO)NC(=O)[C@@H](Cc1ccc(O)cc1)NC(=O)[C@H](N)Cc1ccc(O)cc1)C(=O)NCC(=O)N[C@H](Cc1ccc(O)cc1)C(=O)O [CBP450, (d-Tyr)(d-Tyr)(d-Ser)(1-Gly)(d-Ser)(d-Arg)(d-Phe-2,3,4,5,6-F)(d-Cha)(d-Arg)(d-Arg)(d-Arg)(d-Gln)(d-Arg)(d-Arg)(d-Lys)(d-Lys)(d-Arg)(1-Gly)(d-Tyr)] (H-[dY][dY][dS]G[dS][dR][dPhe(F5)][dCha][dR][dR][dR][dQ][dR][dR][dK][dK][dR]G[dY]-OH; N-terminus and C-terminus assumed) | ≥0.78 | >6.25 | >6.25 | < 3.40 | 5.00 | – | – | – | – |
| N.N.[Cl][Pt][Cl] [cisplatin, cis-diamminodichloroplatinum, reference compound] | – | – | – | – | – | 4.80 | 4.51 | 4.34 | 52.7 |
